Reference: patent publication US10155760B2, “Biaryl kinase inhibitors” (BRISTOL-MYERS SQUIBB COMPANY, priority 2014, dated 2018)
One block for each compound: values may come before it.

Columns and labels:
[1] = biological target: GST-Xa-hAAK1 (Homo sapiens (Human), UniProt Q2M2I8); test: AAK1 Kinase Assay; type: biochemical; details: ATP 22 μM; GST-Xa-hAAK1 3.5 nM; 3 hours at room temperature
Protocol: The assays were performed in U-bottom 384-well plates. […] The reactions were initiated by the combination of bacterially expressed, GST-Xa-hAAK1 with substrates and test compounds. The reactions were incubated at room temperature for 3 hours and terminated by adding 60 μl of 35 mM EDTA buffer to each sample. The reactions were analyzed on the Caliper LabChip 3000 (Caliper, Hopkinton, Mass.) by electrophoretic separation of the fluorescent substrate and phosphorylated product. […] Compounds were dissolved at 10 mM in dimethylsulfoxide (DMSO) and evaluated at eleven concentrations. IC50 values were derived by non-linear regression analysis.

[2] = system: PC12 cells; details: cited from earlier work
[3] = system: HCV; details: Huh-7.5 cells; cited from earlier work
[4] = system: HCV; details: Huh-7.5 cells; cited from earlier work; remark: listed apart in the source

Chain of GST-Xa-hAAK1 (Q2M2I8 whole entry): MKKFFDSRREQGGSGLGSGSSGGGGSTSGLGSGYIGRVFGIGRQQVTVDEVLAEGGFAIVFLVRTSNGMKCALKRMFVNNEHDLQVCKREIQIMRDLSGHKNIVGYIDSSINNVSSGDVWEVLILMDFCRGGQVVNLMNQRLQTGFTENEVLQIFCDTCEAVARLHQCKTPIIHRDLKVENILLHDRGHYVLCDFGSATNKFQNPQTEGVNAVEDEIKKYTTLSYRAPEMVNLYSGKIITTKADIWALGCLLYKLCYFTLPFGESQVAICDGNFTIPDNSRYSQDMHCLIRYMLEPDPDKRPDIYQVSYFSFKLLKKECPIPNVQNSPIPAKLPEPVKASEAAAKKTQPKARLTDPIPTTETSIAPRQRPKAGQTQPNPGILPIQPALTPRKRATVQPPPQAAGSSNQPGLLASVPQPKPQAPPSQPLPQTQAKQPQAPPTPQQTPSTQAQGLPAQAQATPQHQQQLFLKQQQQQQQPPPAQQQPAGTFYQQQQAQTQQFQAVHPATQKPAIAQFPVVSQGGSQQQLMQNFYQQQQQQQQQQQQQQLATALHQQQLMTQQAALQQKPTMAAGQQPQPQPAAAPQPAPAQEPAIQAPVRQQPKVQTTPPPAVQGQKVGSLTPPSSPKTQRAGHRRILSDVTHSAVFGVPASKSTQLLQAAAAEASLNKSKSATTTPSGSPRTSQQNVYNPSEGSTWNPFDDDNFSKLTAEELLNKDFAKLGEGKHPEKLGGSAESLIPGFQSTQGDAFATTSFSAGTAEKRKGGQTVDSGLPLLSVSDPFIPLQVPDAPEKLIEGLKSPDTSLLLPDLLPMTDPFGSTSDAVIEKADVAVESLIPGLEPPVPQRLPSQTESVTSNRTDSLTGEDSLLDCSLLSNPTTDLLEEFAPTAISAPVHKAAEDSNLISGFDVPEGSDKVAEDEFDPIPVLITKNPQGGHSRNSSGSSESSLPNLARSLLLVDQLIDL

IC50 [1]: 4.8 nM
SMILES: CC(C)C[C@](C)(N)COc1ccc(-c2ccnc3cc(F)ccc23)nc1Cl [Example 136, (S)-1-((2-chloro-6-(7-fluoroquinolin-4-yl)pyridin-3-yl)oxy)-2,4-dimethylpentan-2-amine]

SMILES: COC(=O)[C@@]1(O)C[C@H]2O[C@]1(C)n1c3ccccc3c3c4c(c5c6ccccc6n2c5c31)C(=O)NC4 [Example K252a, K252a]
effect on Neuregulin-1 induced neurite outgrowth [2]: potentiation of Neuregulin-1 induced neurite outgrowth

SMILES: CCN(CC)CCNC(=O)c1c(C)[nH]c(/C=C2\C(=O)Nc3ccc(F)cc32)c1C [sunitinib]
effect on HCV entry [3]: inhibit HCV entry | effect on HCV virion assembly [4]: reduced HCV virion assembly
